Measurements from patent US20240207162A1, “CARGO MOLECULE TRANSDUCTION DOMAIN RMAD1, VARIANT THEREOF, RECOMBINANT CARGO MOLECULE, AND METHOD FOR TRANSDUCING CARGO MOLECULE USING SAME” (REMEDI CO., LTD., priority 2021, published 2024).

System: RAW264.7 cells
Experiment: Introduction of SOD1 fusion proteins into RAW264.7 cells
Format: cell-based
Settings: 0.5 uM, 2 hours
Experimental: SOD1, which is widely known as an antioxidant enzyme, was fused with a cell-penetrating peptide, and the cell-penetrating ability and activity maintenance were evaluated using RAW264.7 cells. The recombinant proteins SOD1, SOD1-TAT, and SOD1-RMAD1 were treated at the same concentration of 0.5 uM to RAW264.7 cells for 2 hours.

SOD1: antioxidant enzyme, recombinant control protein
level of cell penetration: did not penetrate cells
